US20250171486A1, “N4-ISOBUTYRYLOXYCYTIDINE ANALOG SYNTHESIS AND COMPOSITION FOR TREATING VIRAL INFECTION COMPRISING ANTI-VIRAL USE THEREOF” (Dong-A University Research Foundation for Industry-Academy …, priority 2022, published 2025)
Like-named read-outs stand apart in the source and are kept apart here.

What was measured:
[1] = tested on: Influenza virus A/Hong Kong/8/68 (HK: H3N2); experiment: organism not typed; format: cell-based; conditions: for Selectivity index Flu A H3H2 Hong Kong: MDCK cells; for EC50: read-out: Antiviral activity (EC50) Flu A H3N2 Hong Kong
[2] = tested on: Influenza virus A/Puerto Rico/8/34 (PR8; H1N1); experiment: organism not typed; format: cell-based; conditions: for EC50: read-out: Antiviral activity (EC50) Flu A H1N1 PR8; for Selectivity index Flu A H1N1 PR8: MDCK cells
[3] = tested on: Influenza virus B/Lee/40 (Lee); experiment: microbe, parasite or virus in culture; format: cell-based; conditions: for EC50: read-out: Antiviral activity (EC50) Flu B Lee; for Selectivity index Flu B Lee: MDCK cells
[4] = in vitro; conditions: dog
[5] = tested on: SARS-COV-2 (BetaCoV/Korea/KCDC03/2020); experiment: Image-based anti-SARS-COV-2 assay in Vero cells (anti-spike antibody); format: cell-based
[6] = Cytotoxicity in mock-infected MDCK cells (MTT); conditions: dog, mock-infected MDCK cells
[7] = in vitro; conditions: for CC50: African green monkey
[8] = tested on: DENV-2 replicon; experiment: microbe, parasite or virus in culture; format: cell-based; conditions: for S.I., Selectivity index = CC50/EC50: DENV-2, BHK-21 cells
[9] = tested on: DENV-2 replicon BHK-21 (DENV2-BHK) cells; experiment: MTT cytotoxicity assay in DENV-2 replicon BHK-21 cells; conditions: for CC50: read-out: CC50, 50% cytotoxic concentration, BHK-21 cells, MTT
[10] = tested on: Vero cells; conditions: for CC50: read-out: CC50, cytotoxicity, 2 days
[11] = MTT cytotoxicity assay in DENV-2 replicon BHK-21 cells; conditions: hamster
[12] = tested on: MDCK cells; experiment: Cytotoxicity in mock-infected MDCK cells (MTT); conditions: read-out: Toxicity (CC50); MDCK cells, 3 days
[13] = unidentified influenza virus, MDCK, 72 h
[14] = Severe acute respiratory syndrome coronavirus 2, Vero, 48 h
[15] = Dengue virus, DENV2, BHK-21, read-out: EC50, 50% effective concentration, anti-DENV-2 activity
[16] = read-out: EC50, 50% effective concentration, anti-DENV-2 activity, DENV-2 replicon BHK-21 cells, luciferase

| Structure (SMILES) | Selectivity index Flu A H3H2 Hong Kong [1] | EC50 ([1]; MDCK, 72 h) [µM] | EC50 ([2]; MDCK, 72 h) [µM] | EC50 [3, 13] [µM] | EC50 [5, 14] [µM] | CC50 [7] [µM] | EC50 [8, 15] [µM] | CC50 [9] [µM] | EC50 [5] [µM] | CC50 [12] [µM] | EC50 [1] [µM] | EC50 [2] [µM] | EC50 [8, 16] [µM] | EC50 [3] [µM] | CC50 [10] [µM] | also measured |
| --- | --- | --- | --- | --- | --- | --- | --- | --- | --- | --- | --- | --- | --- | --- | --- | --- |
| NC12CC3CC(CC(C3)C1)C2 [AMT, Amantadine] | >15.6 | 6.4 | > 100 | > 100 | – | – | – | – | – | – | – | – | – | – | – | CC50 [4]: > 100 µM |
| CC(C)C(=O)ONc1ccn([C@@H]2O[C@H](CO)[C@@H](O)[C@H]2O)c(=O)n1 [Compound 5a, 1-((2R,3R,4S,5R)-3,4-Dihydroxy-5-(hydroxymethyl)tetrahydrofuran-2-yl)-4-((isobutyryloxy)amino)pyrimidin-2 (1H)-one] | >13.7 | 7.3 | 5.8 | 3.4 | 3.5 | > 100 | 3.95 | 10.8 | – | – | – | – | – | – | – | Antiviral activity improved compared to the parent Compound 6 ([5]; SARS-COV-2): about 5 times; Antiviral activity improved over the other ester precursor 7 ([5]; SARS-COV-2): 3.5 fold; CC50 at 3 days [6]: > 100 µM; CC50 at 2 days ([7]; chlorocebus sabaeus): > 100 µM; Selectivity index Flu A H1N1 PR8 [2]: >17.2; S.I., Selectivity index = CC50/EC50 [8]: 2.74; EC50 value improved over the ester precursor 7 ([8]; DENV-2 replicon): about 6 fold; EC50 value increased compared to the parent Compound 6 ([8]; DENV-2 replicon): about 2 fold; Cytotoxicity reduced compared to the parent Compound 6 ([9]; DENV-2 replicon cells): 2 fold; Selectivity index Flu B Lee [3]: >29.4; Cytotoxicity improved compared to the parent Compound 6 ([10]; SARS-COV-2 test): ≥ 6 times |
| O=c1nc(NCCO)ccn1[C@@H]1O[C@H](CO)[C@@H](O)[C@H]1O [Compound 5b, 1-((2R,3R,4S,5R)-3,4-Dihydroxy-5-(hydroxymethyl)tetrahydrofuran-2-yl)-4-((2-hydroxyethyl)amino)pyrimidin-2 (1H)-one] | – | > 100 | > 100 | > 100 | > 100 | > 100 | > 100 | – | – | – | – | – | – | – | – | Biological SARS-COV-2 activity (in words) ([5]; Vero cells): did not show significant biological SARS-COV-2 activity; Anti-Flu A/B activity (in words) ([2]; Flu A (H1N1, H3N2) and Flu B together): did not exhibit significant anti-Flu A/B activity; Anti-DENV activity in replication assays (in words) ([8]; DENV-2 replicon): did not exhibit significant anti-DENV activity; CC50 [11]: > 100 µM; CC50 at 3 days [4]: > 100 µM |
| CCOC(=O)CNc1ccn([C@@H]2O[C@H](CO)[C@@H](O)[C@H]2O)c(=O)n1 [Compound 5c, Ethyl(1-((2R,3R,4S,5R)-3,4-dihydroxy-5-(hydroxymethyl)tetrahydrofuran-2-yl)-2-oxo-1,2-dihydropyrimidin-4-yl)glycinate] | – | – | – | – | – | – | – | > 100 | > 100 | > 100 | > 100 | > 100 | > 100 | > 100 | > 100 | – |
| CCOC(=O)[C@H](C)Nc1ccn([C@@H]2O[C@H](CO)[C@@H](O)[C@H]2O)c(=O)n1 [Compound 5d, Ethyl(1-((2R,3R,4S,5R)-3,4-dihydroxy-5-(hydroxymethyl)tetrahydrofuran-2-yl)-2-oxo-1,2-dihydropyrimidin-4-yl)-L-alaninate] | – | – | – | – | – | – | – | > 100 | > 100 | > 100 | > 100 | > 100 | > 100 | > 100 | > 100 | – |
| CCOC(=O)[C@H](CC(C)C)Nc1ccn([C@@H]2O[C@H](CO)[C@@H](O)[C@H]2O)c(=O)n1 [Compound 5e, Ethyl(1-((2R,3R,4S,5R)-3,4-dihydroxy-5-(hydroxymethyl)tetrahydrofuran-2-yl)-2-oxo-1,2-dihydropyrimidin-4-yl)-L-leucinate] | – | – | – | – | – | – | – | > 100 | > 100 | > 100 | > 100 | > 100 | > 100 | > 100 | > 100 | – |
| CCOC(=O)[C@H](Cc1ccccc1)Nc1ccn([C@@H]2O[C@H](CO)[C@@H](O)[C@H]2O)c(=O)n1 [Compound 5f, Ethyl(1-((2R,3R,4S,5R)-3,4-dihydroxy-5-(hydroxymethyl)tetrahydrofuran-2-yl)-2-oxo-1,2-dihydropyrimidin-4-yl)-L-phenylalaninate] | – | – | – | – | – | – | – | > 100 | > 100 | > 100 | > 100 | > 100 | > 100 | > 100 | > 100 | – |
| O=c1nc(NO)ccn1[C@@H]1O[C@H](CO)C(O)[C@@H]1O (stereo partly drawn) [Compound 6, β-D-N^4-hydroxycytidine, reference compound] | >43.5 | 2.3 | 1.7 | < 1.2 | > 16.5 | 16.5 | 2.84 | – | – | – | – | – | – | – | – | Selectivity index Flu A H1N1 PR8 [2]: >58.8; S.I., Selectivity index = CC50/EC50 [8]: 2.02; CC50 [11]: 5.75 µM; CC50 at 3 days [4]: > 100 µM |
| CC(C)C(=O)OC[C@H]1O[C@@H](n2ccc(NO)nc2=O)[C@@H](O)C1O (stereo partly drawn) [Compound 7, reference compound] | >16.7 | 6 | 6.6 | 23.8 | 11.8 | > 100 | 23.4 | – | – | – | – | – | – | – | – | CC50 at 3 days [6]: > 100 µM; Selectivity index Flu A H1N1 PR8 [2]: >15.2; S.I., Selectivity index = CC50/EC50 [8]: 1.81; CC50 [11]: 42.2 µM; Selectivity index Flu B Lee [3]: >4.2 |
| NC(=O)c1nc(F)cnc1O [Compound T-705, 6-fluoro-3-hydroxy-2-pyrazinecarboxamide, reference compound] | – | 8.5 | 3.2 | 7.6 | – | – | – | – | – | – | – | – | – | – | – | CC50 at 3 days [6]: > 100 µM; Selectivity index Flu B Lee [3]: >13.2 |
| NC(=O)c1ncn([C@@H]2O[C@H](CO)[C@@H](O)[C@H]2O)n1 [RBV, Ribavirin, reference compound] | – | – | – | 33.3 | – | – | 1.16 | 5.46 | – | – | – | – | – | – | – | – |
| CCC(CC)COC(=O)[C@H](C)N[P@](=O)(OC[C@H]1O[C@@](C#N)(c2ccc3c(N)ncnn23)[C@H](O)[C@@H]1O)Oc1ccccc1 [Remdesivir, reference compound] | – | – | – | – | – | > 100 | – | – | – | – | – | – | – | – | – | – |
